Consider 23 compounds from patent US20240166669A1, “QUINAZOLINE AMINE DERIVATIVES AS KRAS INHIBITORS” (Nikang Therapeutics, Inc., priority 2021, published 2024).

The EC50 is the concentration that produces a half-maximal response.

The structures appear in SMILES notation.

The target in the test is T1, K-Ras G12D (Homo sapiens, UniProt P01116, G12D).
T1 construct: AGS (Cobioer, CBP60476) cell lines which harbor KRAS G12D mutation; host or cells: AGS
The test is described as follows: p-ERK Cellular 2-Plate Assay (Biological Example 2). The note with it: AGS cells (KRAS G12D), 3 h treatment, AlphaLISA p-ERK1/2, 2-plate; Biological Example 2 (unmarked values); read-out: AGS PERK EC50. In kind it is cell-based. How it is done: The ability of the compound of Formula (IIA′), (II′), or (II) or a pharmaceutically acceptable salt thereof (test compound) to inhibit K-Ras G12D activity was tested using AGS (Cobioer, CBP60476) cell lines which harbor KRAS G12D mutation as described below.
AGS (Cobioer, CBP60476) were seeded in 384-well plates and cultured overnight (10.000 cells per well 40 μl total volume). The following morning, cells were treated with test compound, with staring concentration at 10 μM and 3-fold dilution down to 0.5 nM for 3 h at 37° C., DMSO treatment served as control. p-ERK was then measured using AlphaLISA SureFire Ultra p-ERK1/2 (Thr202/Tyr204) Assay Kit (Perkin Elmer, cat #ALSU-PERK) following the manufacturer's instruction as follows.
Briefly, the culture medium was removed and 20 μl 1× lysis buffer was added to each well, followed by 30 minutes incubation on a plate shaker at room temperature. Then 10 μl of lysate was transferred to a white 384-well plate. Acceptor mixture was prepared according to manufacturer's instruction. 5 μl acceptor mixture was added to the cell lysate and the plate was wrapped with foil, spun at 500 rpm for 10 s, and incubated at RT for 60 min. Donor mixture was prepared under subdued light. 5 μl donor mixture was added to the cell lysate and the plate was spun at 500 rpm for 10s and incubated at RT for another 60 min. in the dark. Signal was then measured on a EnVision 2105 multimode plate reader. Percentage inhibition was calculated with DMSO treatment as 100% of signal, and IC50 was calculated by XLfit 5.5.x.
(In general: Alpha assays give light when donor and acceptor beads are brought close together.)

T1 sequence (P01116 1-188 isoform P01116-2 G12D): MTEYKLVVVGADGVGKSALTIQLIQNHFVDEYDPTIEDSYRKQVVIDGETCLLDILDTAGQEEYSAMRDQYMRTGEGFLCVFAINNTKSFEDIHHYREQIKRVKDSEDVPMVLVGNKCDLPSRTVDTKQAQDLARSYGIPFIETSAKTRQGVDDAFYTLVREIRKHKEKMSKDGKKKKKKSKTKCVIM

`C#Cc1cccc2cc(O)cc(-c3ncc4c(N5CC6CCC(C5)N6)nc(OC[C@@]56CCCN5[C@@H]5CCOCC5C6)nc4c3F)c12` (mixture of isomers) [Example 23]: the half-maximal effective concentration (EC50) was found to be 0.48 nM. Under `C#Cc1cccc2cc(O)cc(-c3ncc4c(N5CC6CCC(C5)N6)nc(OC[C@]56CCCN5[C@H]5c7ccnn7CC5C6)nc4c3F)c12` (mixture of isomers) [Example 37] stands 6.6 nM; under `C#Cc1cccc2cc(O)cc(-c3ncc4c(N5CC6CCC(C5)N6)nc(OC[C@]56CCCN5[C@H]5c7cccnc7OCC5C6)nc4c3F)c12` (mixture of isomers) [Example 38], 1.1 nM; under `C#Cc1cccc2cc(O)cc(-c3ncc4c(N5CC6CCC(C5)N6)nc(OC[C@]56CCCN5[C@H]5c7ccccc7OCC5C6)nc4c3F)c12` (mixture of isomers) [Example 39], 0.25 nM. Under `C#Cc1cccc2cc(O)cc(-c3ncc4c(N5C[C@H]6CC[C@@H](C5)N6)nc(OCC56CCCN5CC(=C)C6)nc4c3F)c12` (stereo partly drawn) [Example 1, 4-(4-((1R,5S)-3,8-diazabicyclo[3.2.1]octan-3-yl)-8-fluoro-2-((2-methylene-tetrahydro-1H-pyrrolizin-7a(5H)-yl)methoxy)pyrido[4,3-d]pyrimidin-7-yl)-5-ethynyl-naphthalen-2-ol] stands 0.2 nM; under `C#Cc1cccc2cc(O)cc(-c3ncc4c(N5C[C@H]6CC[C@@H](C5)N6)nc(OCC56CCCN5CC(=CF)C6)nc4c3F)c12` (stereo partly drawn) [Example 2, 4-(4-((1R,5S)-3,8-diazabicyclo[3.2.1]octan-3-yl)-8-fluoro-2-((2-(fluoro-methylene)tetrahydro-1H-pyrrolizin-7a(5H)-yl)methoxy)pyrido[4,3-d]pyrimidin-7-yl)-5-ethynylnaphthalen-2-ol], 0.2 nM. As to `C#Cc1cccc2cc(O)cc(-c3ncc4c(N5C[C@H]6CC[C@@H](C5)N6)nc(OCC56CCCN5CC(=CC(F)F)C6)nc4c3F)c12` (stereo partly drawn) [Example 3, 4-(4-((1R,5S)-3,8-diazabicyclo[3.2.1]octan-3-yl)-2-((2-(2,2-difluoroethylidene)-tetrahydro-1H-pyrrolizin-7a(5H)-yl)methoxy)-8-fluoropyrido[4,3-d]pyrimidin-7-yl)-5-ethynylnaphthalen-2-ol], the concentration giving a half-maximal response (EC50) was determined as 1.5 nM.

Regarding `C#Cc1cccc2cc(O)cc(-c3ncc4c(N5C[C@H]6CC[C@@H](C5)N6)nc(OCC56CCCN5c5ccccc5C6)nc4c3F)c12` (stereo partly drawn) [Example 5, 4-(4-((1R,5S)-3,8-diazabicyclo[3.2.1]octan-3-yl)-2-((2,3-dihydro-1H-pyrrolo[1,2-a]-indol-9a(9H)-yl)methoxy)-8-fluoropyrido[4,3-d]pyrimidin-7-yl)-5-ethynylnaphthalen-2-ol], the concentration for a half-maximal effect (EC50) was 320 nM. With `C#Cc1cccc2cc(O)cc(-c3ncc4c(N5C[C@H]6CC[C@@H](C5)N6)nc(OCC56CCCN5Cc5ccccc56)nc4c3F)c12` (stereo partly drawn) [Example 6, 4-(4-((1R,5S)-3,8-diazabicyclo[3.2.1]octan-3-yl)-2-((2,3-dihydro-1H-pyrrolo[2,1-a]-isoindol-9b(5H)-yl)methoxy)-8-fluoropyrido[4,3-d]pyrimidin-7-yl)-5-ethynylnaphthalen-2-ol], the EC50 was 0.6 nM. Under `C#Cc1cccc2cc(O)cc(-c3ncc4c(N5CC6C=C(C#N)C(C5)N6)nc(OCC56CCCN5CCC6)nc4c3F)c12` (centres unmarked) [Example 7, 3-(7-(8-ethynyl-3-hydroxynaphthalen-1-yl)-8-fluoro-2-((tetrahydro-1H-pyrrolizin-7a(5H)-yl)methoxy)pyrido[4,3-d]pyrimidin-4-yl)-3,8-diazabicyclo[3.2.1]oct-6-ene-6-carbonitrile] stands 260 nM; under `C#Cc1cccc2cc(O)cc(-c3ncc4c(N5CC6NC(C5)C5CC65)nc(OCC56CCCN5CCC6)nc4c3F)c12` (centres unmarked) [Example 9, 5-ethynyl-4-(8-fluoro-2-((tetrahydro-1H-pyrrolizin-7a(5H)-yl)methoxy)-4-(7,9-diazatricyclo[3.3.1.02,4]nonan-7-yl)pyrido[4,3-d]pyrimidin-7-yl)naphthalen-2-ol], 253 nM. Under `C#Cc1cccc2cc(O)cc(-c3ncc4c(N5CC6CC(=C)C(C5)N6)nc(OCC56CCCN5CCC6)nc4c3F)c12` (centres unmarked) [Example 10, 5-ethynyl-4-(8-fluoro-4-(6-methylene-3,8-diazabicyclo[3.2.1]octan-3-yl)-2-((tetrahydro-1H-pyrrolizin-7a(5H)-yl)methoxy)pyrido[4,3-d]pyrimidin-7-yl)naphthalen-2-ol] stands 128 nM. Under `C#Cc1c(F)ccc2cccc(-c3ncc4c(N5C[C@H]6CC[C@@H](C5)N6)nc(OCC56CCCN5CC(=C)C6)nc4c3F)c12` (stereo partly drawn) [Example 11, 4-((1R,5S)-3,8-diazabicyclo[3.2.1]octan-3-yl)-7-(8-ethynyl-7-fluoronaphthalen-1-yl)-8-fluoro-2-((2-methylenetetrahydro-TH-pyrrolizin-7a(5H)-yl)methoxy)pyrido[4,3-d]pyrimidine] stands 7 nM; under `C#Cc1c(F)ccc2cccc(-c3ncc4c(N5CC6CCC(C5)N6)nc(OCC56CCCN5Cc5ccccc56)nc4c3F)c12` (centres unmarked) [Example 12, 9b-(((4-(3,8-diazabicyclo[3.2.1]octan-3-yl)-7-(8-ethynyl-7-fluoronaphthalen-1-yl)-8-fluoropyrido[4,3-d]pyrimidin-2-yl)oxy)methyl)-2,3,5,9b-tetrahydro-1H-pyrrolo[2,1-a]isoindole], 105 nM; under `C#Cc1cccc2cc(O)cc(-c3ncc4c(N5CC6CCC(C5)N6)nc(OCC56CCCN5CC(=CC)C6)nc4c3F)c12` (centres unmarked) [Example 15], 0.1 nM.

As for `C=C1CN2CCCC2(COc2nc(N3C[C@H]4CC[C@@H](C3)N4)c3cnc(-c4cc(O)cc5cccc(F)c45)c(F)c3n2)C1` (stereo partly drawn) [Example 22, 4-(4-((1R,5S)-3,8-diazabicyclo-[3.2.1]octan-3-yl)-8-fluoro-2-((2-methylenetetrahydro-1H-pyrrolizin-7a(5H)-yl)methoxy)pyrido[4,3-d]-pyrimidin-7-yl)-5-fluoronaphthalen-2-ol], the EC50 was determined as 1 nM. Take `C#Cc1cccc2cc(O)cc(-c3ncc4c(N5CC6CCC(C5)N6)nc(OCC56CCCN5Cc5c(F)cccc56)nc4c3F)c12` (centres unmarked) [Example 24, 4-(4-(3,8-diazabicyclo[3.2.1]octan-3-yl)-8-fluoro-2-((6-fluoro-2,3-dihydro-1H-pyrrolo[2,1-a]isoindol-9b(5H)-yl)-methoxy)pyrido[4,3-d]pyrimidin-7-yl)-5-ethynylnaphthalen-2-ol]: the EC50 is 3.7 nM. As to `C#Cc1cccc2cc(O)cc(-c3ncc4c(N5CC6CCC(C5)N6)nc(OCC56CCCN5Cc5cc(F)ccc56)nc4c3F)c12` (centres unmarked) [Example 25, 4-(4-(3,8-diazabicyclo[3.2.1]octan-3-yl)-8-fluoro-2-((7-fluoro-2,3-dihydro-1H-pyrrolo[2,1-a]isoindol-9b(5H)-yl)-methoxy)pyrido[4,3-d]pyrimidin-7-yl)-5-ethynylnaphthalen-2-ol], the EC50 is 3 nM. Turning to `C#Cc1cccc2cc(O)cc(-c3ncc4c(N5CC6CCC(C5)N6)nc(OCC56CCCN5Cc5ccc(F)cc56)nc4c3F)c12` (centres unmarked) [Example 26, 4-(4-(3,8-diazabicyclo[3.2.1]octan-3-yl)-8-fluoro-2-((8-fluoro-2,3-dihydro-1H-pyrrolo[2,1-a]isoindol-9b(5H)-yl)-methoxy)pyrido[4,3-d]pyrimidin-7-yl)-5-ethynylnaphthalen-2-ol], the EC50 was determined as 7 nM. The value for `C#Cc1cccc2cc(O)cc(-c3ncc4c(N5CC6CCC(C5)N6)nc(OCC56CCCN5Cc5cccc(F)c56)nc4c3F)c12` (centres unmarked) [Example 27, 4-(4-(3,8-diazabicyclo[3.2.1]octan-3-yl)-8-fluoro-2-((9-fluoro-2,3-dihydro-1H-pyrrolo[2,1-a]isoindol-9b(5H)-yl)-methoxy)pyrido[4,3-d]pyrimidin-7-yl)-5-ethynylnaphthalen-2-ol] was 20 nM. The value for `C#Cc1cccc2cc(O)cc(-c3ncc4c(N5CC6CCC(C5)N6)nc(OCC56CCCN5Cc5cccnc56)nc4c3F)c12` (centres unmarked) [Example 28, 4-(4-(3,8-diazabicyclo[3.2.1]octan-3-yl)-2-((8,9-dihydro-5H-pyrido[2,3-a]-pyrrolizin-9a(7H)-yl)methoxy)-8-fluoropyrido[4,3-d]pyrimidin-7-yl)-5-ethynylnaphthalen-2-ol] was 46 nM; that for `C#Cc1cccc2cc(O)cc(-c3ncc4c(N5C[C@H]6CC[C@@H](C5)N6)nc(OCC56CCCN5Cc5c(OC)cccc56)nc4c3F)c12` (stereo partly drawn) [Example 29, 4-(4-((1R,5S)-3,8-diazabicyclo-[3.2.1]octan-3-yl)-8-fluoro-2-((6-methoxy-2,3-dihydro-1H-pyrrolo[2,1-a]-isoindol-9b(5H)-yl)methoxy)-pyrido[4,3-d]-pyrimidin-7-yl)-5-ethynylnaphthalen-2-ol] was 2 nM.

Take `C#Cc1cccc2cc(O)cc(-c3ncc4c(N5C[C@H]6CC[C@@H](C5)N6)nc(OCC56CCCN5Cc5cc(OC)ccc56)nc4c3F)c12` (stereo partly drawn) [Example 30, 4-(4-((1R,5S)-3,8-diazabicyclo-[3.2.1]octan-3-yl)-8-fluoro-2-((7-methoxy-2,3-dihydro-1H-pyrrolo[2,1-a]isoindol-9b(5H)-yl)methoxy)-pyrido[4,3-d]-pyrimidin-7-yl)-5-ethynylnaphthalen-2-ol]: the half-maximal effective concentration (EC50) amounted to 4 nM.
